Reference: patent US7893041B2, “Oligosaccharide compositions and use thereof in the treatment of infection” (Children's Hospital Medical Center, priority 2003, dated 2011)

What was measured:
[1] = tested on: calicivirus; assay: Cohort of breastfed mother-infant pairs: milk oligosaccharide vs calicivirus-associated diarrhea; format: in vivo, human
Excerpt: (§1) A cohort of 316 mother-infant pairs was enrolled and monitored from birth to two years postpartum in San Pedro Martir, a transitional neighborhood of Mexico City. Enrollment was restricted to term, normal birthweight infants. This research was approved by institutional review boards in Mexico and Cincinnati. Written informed consent was obtained from mothers who participated. Infant illness and feeding history were collected by trained field workers who made weekly home visits. Milk samples were collected from mothers weekly in the first month, and monthly thereafter. […] Diarrhea episodes were defined throughout the study as three or more watery stools within a 24-hour period or loose-to-watery bowel movements that exceeded the child's usual daily stool frequency by two or more stools as determined by a study physician. […] Classification of disease severity was based on the standardized history of each diarrhea episode recorded by a study physician, and was blind to and independent of milk oligosaccharide analysis. Diarrhea was attributed to campylobacter or calicivirus if the pathogen was detected in a stool sample collected during or within seven days of an episode of diarrhea. […]
Milk samples were transported to Boston and analyzed as described previously(143). […]

[2] = tested on: Campylobacter jejuni; assay: Cohort of breastfed mother-infant pairs: milk oligosaccharide vs C. jejuni-associated diarrhea; format: in vivo, human; conditions: for Association of rates of C. jejuni diarrhea during breastfeeding with oligosaccharide as a percent of milk oligosaccharide: breastfed infants, 2′-FL P=0.004, LDFH-I P=0.047 (not persisting after controlling for 2′-FL)
Excerpt: as §1, with “thereafter. Samples were collected in the morning by an experienced study nurse using an Egnell electric breast pump to obtain the complete content of one breast. Samples were transported on ice from the study household to the laboratory, where they were stored at −70° C. Infant stool samples were collected weekly with additional samples obtained whenever diarrhea occurred. Diarrhea samples were routinely tested for Campylobacter jejuni, diarrheagenic E. coli, Shigella, Salmonella, Aeromonas, and rotavirus, as detailed in previous publications (129, 136-138).” for “thereafter.”
Milk samples were transported to Boston and analyzed as described previously(143). Milk oligosaccharides were isolated, perbenzoylated, and resolved by reversed-phase HPLC (C-8) with an acetonitrile/water gradient and detected at 229 nm. […]

[3] = tested on: Campylobacter; assay: Ex vivo inhibition of Campylobacter colonization of human intestinal mucosa; conditions: FIG. 9B
Protocol: FIGS. 9A and 9B are a pair of graphs depicting the results of an study showing inhibition of Campylobacter colonization in BALB/c mice fed with 2 mg of milk fucosylated oligosaccharides given during challenge with 10^4 and 10^8 CFU of bacteria (left). Ex vivo assays of inhibition of human gut colonization of Campylobacter with 2′-fucosyllactose (2′-FL) and milk fucosylated oligosaccharides (OS).

[4] = tested on: campylobacter adherence to intestinal epithelial cells; conditions: early studies (ref. 80); cited from earlier work
[5] = tested on: V. cholerae; conditions: previous studies (ref. 86); cited from earlier work
[6] = tested on: Campylobacter binding to FUT1-CHO cells; assay: Inhibition of Campylobacter binding to FUT1-transfected CHO cells; format: cell-based, Campylobacter jejuni; conditions: FIG. 7
Excerpt: α1,2-fucosyltransferase-transfected CHO cells (CHO-FUT1), α1,3/4-fucosyltransferase-transfected CHO cells (CHO-FUT3), and α1,3-fucosyltransferase-transfected CHO cells (CHO-FUT4), and parental CHO cells transfected with the vector pCDM7 lacking the α1,2 FUT gene (CHO-WT) can be used to test bacterial binding and bacterial/host cell agglutination. Parental CHO cells with the vectors are used as controls.
The binding of bacteria to CHO cells transfected with the human gene for α1,2-fucosyltransferase (FUT1), can be assessed by bacterial-cell association assay. […]
Ligands, such as α1,2-fucosyl ligands and homologs are tested for their ability to inhibit binding of campylobacter and V. cholerae strains to CHO-FUT1 cells. For molecules that is bind to H-2 ligands, including anti-H-2 monoclonal antibodies (anti-H-2 MAbs) and the lectins Ulex europaeus (UEA I) and Lotus tetragonolobus (Lotus), inhibition is measured on monolayers of CHO-FUT1 cells incubated in 8-well chamber slides for 1 h with each of the α1,2-fucosyl ligands before adding 100 μL of the bacterial suspension containing 1×10^8 bacteria/mL. […] In both assays, after a 3 h incubation at 37° C., wells are rinsed, lysed with 1% Triton X100, and CFU (colony forming units) of bacteria per well are determined. […]

Molecule: Lacto-N-difucohexaose I [LDFH-I]
- Association of calicivirus diarrhea during breastfeeding with oligosaccharide as a percent of milk oligosaccharide ([1]; breastfed infants, P=0.012, dose-dependent): inverse association
- Calicivirus incidence in the high group compared to the low group ([1]; tertiles (n=31) of LDFH-I as percent of milk oligosaccharide: low <0.07, intermediate 0.07-0.11, high >0.12, FIG. 6B): significantly (P=0.02) less
- Association of rates of C. jejuni diarrhea during breastfeeding with oligosaccharide as a percent of milk oligosaccharide [2]: directly associated

Molecule: 2-Fucosyllactose [2′-FL]
- Inhibition of C. jejuni binding/colonization in human intestinal mucosa ex vivo [3]: inhibits
- Association of rates of C. jejuni diarrhea during breastfeeding with oligosaccharide as a percent of milk oligosaccharide [2]: inversely associated
- Campylobacter incidence in the intermediate and high groups compared to the low group ([2]; tertiles (n=31) of 2′-FL as percent of milk oligosaccharide: low <0.29, intermediate 0.29-0.36, high >0.37, FIG. 6A): significantly (P<0.01) less

Molecule: C[C@H](O)[C@@H](O)[C@@H](O)[C@H](O)C=O [L-fucose]
- Inhibition of campylobacter adherence to intestinal epithelial cells [4]: inhibition
- Inhibition of hemagglutination produced by V. cholerae with human O erythrocytes [5]: inhibited

B1: Ulex europaeus lectin: lectin that binds to H-2 ligands (protein, UniProt P22972 1-243, looked up)
Anti-H(O) lectin 1: SDDLSFKFKNFSQNGKDLSFQGDASVIETGVLQLNKVGNNLPDETGGIARYIAPIHIWNCNTGEVASFITSFSFFMETSANPKAATDGLTFFLAPPDSPLRRAGGYFGLFEDTKDNDSSYQTVAVEFDTIGSPVNFDDPGFPHIGIDVNRVKSINAERWNKRYGLNNVANVEIIYEASSKTLTASLTYPSDQTSISVTSIVDLKEILPEWVSVGFSGGTYIGRQATHEVLNWYFTSNLINTNS
- Inhibition of bacterial binding to α1,2-fucosyltransferase (FUT1)-transfected CHO cells [6]: specifically inhibited
